Measurements as given in PMC6522510 (Nature Communications, 2019).
Like-named read-outs stand apart in the source and are kept apart here.

Legend:
[1] = test system: FLT3-ITD+ primary AML blast samples
[2] = test system: MV4-11; experiment: Secondary dose-response HTS, Cell Titer Glo; assay type: cell-based, human; conditions: MV4-11; for EC50: Homo sapiens
[3] = test system: U937; experiment: Secondary dose-response HTS, Cell Titer Glo; assay type: cell-based, human; conditions: for EC50: Homo sapiens, U-937
[4] = test system: ML2; experiment: Secondary dose-response HTS, Cell Titer Glo; assay type: cell-based, human; conditions: ML-2; for EC50: Homo sapiens
[5] = test system: panel of 8 AML cell lines; experiment: Secondary dose-response HTS, whole panel; assay type: cell-based, human; conditions: secondary HTS (Supplementary Data 2)
[6] = test system: CMK; experiment: Secondary dose-response HTS, Cell Titer Glo; assay type: cell-based, human; conditions: CMK; for EC50: Homo sapiens
[7] = test system: MOLM-13; experiment: Secondary dose-response HTS, Cell Titer Glo; assay type: cell-based, human; conditions: MOLM-13; for EC50: Homo sapiens
[8] = test system: CMS; experiment: Secondary dose-response HTS, Cell Titer Glo; assay type: cell-based, human; conditions: for EC50: Homo sapiens
[9] = test system: CHRF288-11; experiment: Secondary dose-response HTS, Cell Titer Glo; assay type: cell-based, human; conditions: for EC50: Homo sapiens
[10] = test system: AMKL primary AML blast samples; experiment: Ex vivo drug treatment of primary AML blasts on mesenchymal stromal cells; assay type: cell-based; conditions: Homo sapiens; primary blasts on MSC, 96 h
[11] = test system: M07e; experiment: Secondary dose-response HTS, Cell Titer Glo; assay type: cell-based, human; conditions: for EC50: Homo sapiens, M-07e
[12] = test system: MLLr primary AML blast samples; experiment: Ex vivo drug treatment of primary AML blasts on mesenchymal stromal cells; assay type: cell-based; conditions: Homo sapiens; primary blasts on MSC, 96 h, range over patient samples
[13] = test system: CMK; experiment: cells; parameters: species or system AML cell lines (8); Secondary HTS, 10-point dose-response in triplicate, Cell Titer Glo viability, four-parameter fit EC50; conditions: Homo sapiens, CMK, 72 h, read-out: CMK
[14] = test system: U937; experiment: cells; parameters: species or system AML cell lines (8); Secondary HTS, 10-point dose-response in triplicate, Cell Titer Glo viability, four-parameter fit EC50; conditions: Homo sapiens, U-937, 72 h, read-out: U937
[15] = test system: M07e; experiment: cells; parameters: species or system AML cell lines (8); Secondary HTS, 10-point dose-response in triplicate, Cell Titer Glo viability, four-parameter fit EC50; conditions: M-07e, 72 h, read-out: M07e
[16] = test system: MV4-11; experiment: cells; parameters: species or system AML cell lines (8); Secondary HTS, 10-point dose-response in triplicate, Cell Titer Glo viability, four-parameter fit EC50; conditions: Homo sapiens, MV4-11, 72 h, read-out: MV4-11
[17] = test system: CHRF288-11; experiment: cells; parameters: species or system AML cell lines (8); Secondary HTS, 10-point dose-response in triplicate, Cell Titer Glo viability, four-parameter fit EC50; conditions: 72 h, read-out: CHRF288-11
[18] = test system: MOLM-13; experiment: cells; parameters: species or system AML cell lines (8); Secondary HTS, 10-point dose-response in triplicate, Cell Titer Glo viability, four-parameter fit EC50; conditions: Homo sapiens, MOLM-13, 72 h, read-out: MOLM-13
[19] = test system: CMS; experiment: cells; parameters: species or system AML cell lines (8); Secondary HTS, 10-point dose-response in triplicate, Cell Titer Glo viability, four-parameter fit EC50; conditions: 72 h, read-out: CMS
[20] = test system: U937; experiment: cells; parameters: species or system AML cell lines (8); conditions: Homo sapiens, U-937, 72 h, read-out: U937
[21] = test system: MOLM-13; experiment: cells; parameters: species or system AML cell lines (8); Secondary HTS, 10-point dose-response in triplicate, Cell Titer Glo viability, four-parameter fit EC50; conditions: Homo sapiens; 72 h cell viability; read-out: MOLM-13
[22] = test system: CMS; experiment: cells; parameters: species or system AML cell lines (8); conditions: 72 h, read-out: CMS
[23] = test system: CMK; experiment: cells; parameters: species or system AML cell lines (8); conditions: Homo sapiens, 72 h, read-out: CMK
[24] = test system: MV4-11; experiment: cells; parameters: species or system AML cell lines (8); conditions: Homo sapiens, MV4-11, 72 h, read-out: MV4-11
[25] = test system: ML-2; experiment: cells; parameters: species or system AML cell lines (8); conditions: Homo sapiens, ML-2, 72 h, read-out: ML-2
[26] = test system: M07e; experiment: cells; parameters: species or system AML cell lines (8); conditions: M-07e, 72 h, read-out: M07e
[27] = test system: CHRF288-11; experiment: cells; parameters: species or system AML cell lines (8); conditions: 72 h, read-out: CHRF288-11
[28] = secondary high-throughput screen, read-out: average effective concentration, MV4-11
[29] = secondary high-throughput screen, U937, read-out: average effective concentration, U937
[30] = secondary high-throughput screen, read-out: average effective concentration, ML-2
[31] = secondary high-throughput screen, read-out: average effective concentration, CMK
[32] = secondary high-throughput screen, read-out: average effective concentration, MOLM-13
[33] = secondary HTS, 72 h, average of triplicate, read-out: EC50 MV4-11
[34] = secondary HTS, 72 h, average of triplicate, read-out: EC50 U937
[35] = secondary HTS, 72 h, average of triplicate, read-out: EC50 CMS
[36] = secondary HTS, 72 h, average of triplicate, read-out: EC50 CMK
[37] = HTS, secondary high-throughput screen, CHRF288-11, read-out: average effective concentration, CHRF288-11
[38] = secondary HTS, 72 h, average of triplicate, read-out: EC50 CHRF288-11
[39] = secondary HTS, 72 h, average of triplicate, read-out: EC50 MOLM-13
[40] = secondary HTS, 72 h, average of triplicate, read-out: EC50 M07e
[41] = secondary high-throughput screen, M07e, read-out: average effective concentration, M07e
[42] = secondary high-throughput screen, U937
[43] = secondary high-throughput screen
[44] = secondary high-throughput screen, CHRF288-11
[45] = HTS, secondary high-throughput screen, CMS, read-out: average effective concentration, CMS

Cn1ncnc1[C@H]1c2n[nH]c(=O)c3cc(F)cc(c23)N[C@@H]1c1ccc(F)cc1 [Talazoparib]
IC50 [1]: 1980 to 2460 nM

CCN(CCCOc1ccc2c(Nc3cc(CC(=O)Nc4cccc(F)c4)n[nH]3)ncnc2c1)CCOP(=O)(O)O [barasertib, reference compound]
EC50 [2, 28]: 1 nM
EC50 [3, 29]: 1 nM
EC50 [4, 30]: 1 nM
active cell lines out of 8 in HTS [5]: 3/8
EC50 [6, 31]: 35 nM
EC50 [7, 32]: 7 nM

CC(C)C[C@H](NC(=O)[C@H](CCc1ccccc1)NC(=O)CN1CCOCC1)C(=O)N[C@@H](Cc1ccccc1)C(=O)N[C@@H](CC(C)C)C(=O)[C@@]1(C)CO1 [Carfilzomib, reference compound]
EC50 [2, 33]: 1 nM
EC50 [2, 28]: 1.1 nM
EC50 [3, 34]: 10 nM
EC50 [8, 35]: 1 nM
EC50 [6, 36]: 10 nM
EC50 [6, 31]: 6 nM
EC50 [9, 37]: 19 nM
EC50 [9, 38]: 20 nM
IC50 [10]: 54 nM
EC50 [7, 39]: 10 nM
EC50 [7, 32]: 5.44 nM
EC50 [11, 40]: 1 nM
EC50 [11, 41]: 1.4 nM
IC50 [1]: 6 to 62 nM
IC50 [12]: 4.3 to 53 nM

CC1(C)CCC(CN2CCN(c3ccc(C(=O)NS(=O)(=O)c4ccc(NCC5CCOCC5)c([N+](=O)[O-])c4)c(Oc4cnc5[nH]ccc5c4)c3)CC2)=C(c2ccc(Cl)cc2)C1 [Venetoclax, reference compound]
EC50 [2, 28]: 1 nM
average effective concentration, U937 [3, 42]: Inactive
average effective concentration, ML-2 [4, 43]: Inactive
EC50 ([8]; HTS, read-out: average effective concentration, CMS): > 10000 nM
average effective concentration, CMK [6, 43]: Inactive
average effective concentration, CHRF288-11 [9, 44]: Inactive
EC50 [7, 32]: > 10000 nM
average effective concentration, M07e ([11]; secondary high-throughput screen, M07e): Inactive
IC50 [1]: 3.2 to 16 nM
IC50 [12]: 46 to 1050 nM

CC(=O)Nc1cccc(-n2c(=O)n(C3CC3)c(=O)c3c(Nc4ccc(I)cc4F)n(C)c(=O)c(C)c32)c1 [Trametinib]
EC50 [13]: > 10000 nM
EC50 [14]: > 10000 nM
EC50 [4, 30]: 1 nM
EC50 [15]: > 10000 nM
EC50 [16]: > 10000 nM
EC50 [17]: > 10000 nM
EC50 [18]: > 10000 nM
EC50 [19]: > 10000 nM
IC50 [1]: 130 to 5310 nM
IC50 [12]: 1.6 to 1470 nM

CC(=O)c1c(C)c2cnc(Nc3ccc(N4CCNCC4)cn3)nc2n(C2CCCC2)c1=O [Palbociclib, reference compound]
EC50 [3, 29]: 10000 nM
EC50 [8, 45]: 9100 nM
EC50 [6, 31]: 3500 nM
IC50 [10]: 5170 nM
IC50 [1]: 979 to 5260 nM
IC50 [12]: 1110 to 4000 nM

COc1cc(OC)c(/C=C/S(=O)(=O)Cc2ccc(OC)c(NCC(=O)O)c2)c(OC)c1 [rigosertib, reference compound]
EC50 [3, 29]: 5 nM
EC50 [4, 30]: 15 nM
EC50 [8, 45]: 11 nM
active cell lines out of 8 in HTS [5]: 7/8
EC50 [6, 31]: 3.61 nM
EC50 [9, 37]: 17 nM
EC50 [7, 32]: 6 nM

CCOc1cc(C(C)(C)C)ccc1C1=N[C@@](C)(c2ccc(Cl)cc2)[C@@](C)(c2ccc(Cl)cc2)N1C(=O)N1CCN(CCCS(C)(=O)=O)CC1 [RG7112, reference compound]
EC50 [2, 28]: 2500 nM
EC50 [4, 30]: 6800 nM
EC50 [7, 32]: 290 nM
EC50 [11, 41]: > 10000 nM
IC50 [1]: 77 to 952 nM
IC50 [12]: 149 to 845 nM

C/C=C1\NC(=O)[C@H]2CSSCC/C=C/[C@H](CC(=O)N[C@H](C(C)C)C(=O)N2)OC(=O)[C@H](C(C)C)NC1=O [Romidepsin, reference compound]
EC50 [2, 33]: 1 nM
EC50 [2, 28]: 0.6 nM
EC50 [3, 34]: 3 nM
EC50 [3, 29]: 3.2 nM
EC50 ([4]; secondary HTS, 72 h, average of triplicate, read-out: EC50 ML2): 4 nM
EC50 [4, 30]: 3.8 nM
EC50 [8, 35]: 1 nM
EC50 [6, 36]: 10 nM
EC50 [6, 31]: 8 nM
EC50 [9, 37]: 6.5 nM
EC50 [9, 38]: 10 nM
IC50 [10]: 5 nM
EC50 [7, 39]: 1 nM
EC50 [7, 32]: 0.67 nM
EC50 [11, 40]: 2 nM
EC50 ([11]; secondary high-throughput screen, […], read-out: average effective concentration, M07e): 1.7 nM
IC50 [1]: 3.8 to 13 nM
IC50 [12]: 1.6 to 6 nM

O=C(CCCCCCC(=O)Nc1ccccc1)NO [Vorinostat, reference compound]
EC50 [2, 28]: 790 nM
IC50 [1]: 304 to 2890 nM

Cn1c(COP(=O)(NCCBr)NCCBr)cnc1[N+](=O)[O-] [TH-302]
EC50 [20]: > 10000 nM
EC50 [21]: > 10000 nM
average effective concentration, MV4-11 [2, 43]: Inactive
average effective concentration, U937 [3, 42]: Inactive
EC50 [22]: > 10000 nM
EC50 [23]: > 10000 nM
EC50 [24]: > 10000 nM
EC50 [25]: > 10000 nM
average effective concentration, ML-2 [4, 43]: Inactive
average effective concentration, CMS ([8]; secondary high-throughput screen, CMS): Inactive
EC50 [26]: > 10000 nM
average effective concentration, CMK [6, 43]: Inactive
average effective concentration, CHRF288-11 [9, 44]: Inactive
average effective concentration, MOLM-13 [7, 43]: Inactive
average effective concentration, M07e ([11]; secondary high-throughput screen, […]): Inactive
EC50 [27]: > 10000 nM
